Marks after values point to notes of the source that are not given here.
Legend:
IL-1β = test: Inflammatory factor experiment B: IL-1β in knee synovial tissue (ELISA); assay type: in vivo, SD rats; conditions: for inhibition in vivo at 0.6 mg/kg: Rattus norvegicus, po, 48 h, read-out: IL-1β percentage decrease %
IL-6 = test: Inflammatory factor experiment B: IL-6 in knee synovial tissue (ELISA); assay type: in vivo, SD rats; conditions: Rattus norvegicus, po, 48 h, read-out: IL-6 percentage decrease %
TNF-α = test: Inflammatory factor experiment B: TNF-α in knee synovial tissue (ELISA); assay type: in vivo, SD rats; conditions: for inhibition in vivo at 0.6 mg/kg: Rattus norvegicus, po, 48 h, read-out: TNF-α percentage decrease %
[1] = In vivo pharmacokinetics in SD rats
Procedure: Compound stock solution preparation: an appropriate amount of solid powder of the compounds were weighed separately, a certain amount of DMSO was added and 20 mg/mL of stock solution was obtained under vortex ultrasound.
Preparation of test compound for gavage: an appropriate amount of compound stock solution was taken by pipette, a certain amount of Solutol HS15 solution was added, the mixture was vortexed for 1 minute, then a certain amount of saline was added, and 1 mg/mL of solution was obtained after mixing well.
Preparation of test compounds for intravenous injection: an appropriate amount of compound stock solution was taken by pipette separately, a certain amount of Solutol HS15 solution was added, the mixture was vortexed for 1 minute, then a certain amount of physiological saline was added and a solution of 0.5 mg/mL was obtained after mixing well.
The animals were fasted overnight before administration by gavage, and food was given 4 hours after administration, during which they were free to drink. Two groups were set for each test compound, intravenous injection group and oral administration group, and the dose and mode of administration were shown in Table 12 below.
The blood samples were centrifuged at 4° C. for 5 min at 2,000 g to separate the plasma. The plasma samples were analyzed by LC/MS/MS to detect the concentration of each test compound in the plasma samples.
The parameters related to the […] were obtained by calculations with WinNonlin® Professional software.

[2] = test system: gouty arthritis rats (sodium urate, right ankle and knee joint cavities); test: Pharmacodynamics experiment B on gouty arthritis rats: gait score; assay type: in vivo, SD rats; conditions: dose 0.6 mg/kg gavage, mean
Procedure: (§1) Compounds 12, 16, 19, 30, 34, 36, 38, 40, 44, 48, 49, 52, 58, 69, 83, 98, 102, 119, 121, and 122 were prepared by grinding with 0.5% CMC-Na prior to administration and formulated into suspensions of appropriate concentration (0.12 mg/mL) for gavage, with an administered dose of 0.5 mL/100 g.
(§2) 240 SD rats, males, were acclimatized for one week and weighed 180-220 g. […] The dose of each compound group was 0.6 mg/kg. The compounds in each group were prepared into the corresponding concentration suspension, and the volume of administration was 10 mL/kg.
(§3) 250 mg of sodium urate were added to 9 mL of saline, and 1 mL of Tween-80 solution was added, the resulting mixture was heated and stirred to formulate 10 mL of sodium urate solution. The rats were grasped and fixed, and 0.2 mL of sodium urate solution was injected into the right ankle and knee joint cavities respectively to establish gouty arthritis rat model.
(§4) Before modeling, positive drug and tested compounds were pre-administered for 7 days, once a day, and modeling was performed on day 8, and drug administration by gavage continued for 3 days after modeling.
Gait was scored according to the modified gait grading criteria introduced by Coderre et al. The gait of each rat was observed before and 2 h, 4 h, 8 h, 10 h, 24 h and 48 h after modeling and graded scoring was performed. The gait grading criteria were as follows: 0 point, normal walking; 1 point, slight lameness, the lower limbs were slightly bent; 2 points: moderate lameness, the lower limbs just touched the ground; 3 points, severe lameness, the lower limbs left the ground, and walked on three feet. The mean score of each group was calculated and compared with that of the model group.
(§5) Each experimental data was expressed as the mean, and intergroup comparisons were examined for significance using the ANOVA-Dunnett T-test, with P<0.05 as the significance indicator.

[3] = test system: gouty arthritis rats (sodium urate, right ankle and knee joint cavities); test: Pharmacodynamics experiment B on gouty arthritis rats: ankle swelling rate; assay type: in vivo, SD rats; conditions: dose 0.6 mg/kg gavage
Procedure: as §1, §2, §3, §4
Before modeling and 2 h, 4 h, 8 h, 10 h, 24 h and 48 h after modeling, the circumference of the right ankle joint was measured using a soft ruler or the volume change at the ankle was measured (volumetric method), and the swelling degree and swelling rate of ankle joint were calculated:
Swelling degree (mm)=measured circumference (mm)−baseline circumference (mm)
Swelling rate (%)=swelling degree (mm)/baseline circumference (mm)×100%
as §5

[4] = Intravenous injection - 1 mg/kg
[5] = synovial tissue of knee joints, 48 h after modeling, dose 0.6 mg/kg

In the case of `COc1cc2c(c(OC)c1OC)-c1ccc(C(=O)N3CCCC3)c(=O)cc1[C@@H](NC(C)=O)CC2` [Compound 61, (S)—N-{1,2,3-trimethoxy-9-oxo-10-(pyrrolidin-1-carbonyl)-5,6,7,9-tetrahydrobenzo[a]heptalen-7-yl}acetamide], the inhibition in vivo at 0.6 mg/kg (IL-1β) is reported as 97.2%, the inhibition in vivo at 0.6 mg/kg (IL-6) is reported as 52.5% and the inhibition in vivo at 0.6 mg/kg (TNF-α) is reported as 71.2%.

With `CNC(=O)N[C@H]1CCc2cc(OC)c(OC)c(OC)c2-c2ccc(C(=O)NC)c(=O)cc21` [Compound 81, (S)-1,2,3-trimethoxy-N-methyl-7-(3-methylureido)-9-oxo-5,6,7,9-tetrahydrobenzo[a]heptalen-10-carboxamide] the inhibition in vivo at 0.6 mg/kg (IL-1β) was 86.6%, the inhibition in vivo at 0.6 mg/kg (IL-6) was 70.6% and the inhibition in vivo at 0.6 mg/kg (TNF-α) was 78%.

Compound `[2H]C([2H])([2H])Oc1c(OC)cc2c(c1OC)-c1ccc(C(=O)NC)c(=O)cc1[C@@H](NC(C)=O)CC2` [Compound 122, (S)-7-acetamido-1,3-dimethoxy-2-trideutero-methoxy-N-methyl-9-oxo-5,6,7,9-tetrahydrobenzo[a]heptalen-10-carboxamide] has an AUCINF ([1]; Gavage - 10 mg/kg) of 3129 ng·h/mL, a Cmax ([1]; Gavage - 10 mg/kg) of 1153 ng/mL and an MRTINF ([1]; Gavage - 10 mg/kg) of 2.47 h. For the same compound, the Tmax ([1]; Gavage - 10 mg/kg) was 15 min, the t1/2 ([1]; Gavage - 10 mg/kg) was 1.79 h and the F ([1]; Gavage - 10 mg/kg, calculated by AUCINF) was 50.1%. For the same compound, the AUCINF [1, 4] was 624 ng·h/mL, the CL [1, 4] was 1.63 L/h/kg and the MRTINF [1, 4] was 1.34 h. For the same compound, the VSS [1, 4] was 1.99 L/kg, the t1/2 [1, 4] was 1.57 h and the “IL-1β percentage decrease %” value (IL-1β; [5]) was 86.87%. The “Gait Score” value ([2]; 0 h) was 0, the “Gait Score” value ([2]; 2 h) was 0 and the “Gait Score” value ([2]; 4 h) was 0.2. The “Gait Score” value ([2]; 8 h) was 0.1, the “Gait Score” value ([2]; 10 h) was 0.2 and the “Gait Score” value ([2]; 24 h) was 0.1. The “Gait Score” value ([2]; 48 h) was 0, the “Swelling rate (ankle)” value ([3]; 2 h) was 7.9%** and the “Swelling rate (ankle)” value ([3]; 4 h) was 12.1%**. The “Swelling rate (ankle)” value ([3]; 8 h) was 15.8%**, the “Swelling rate (ankle)” value ([3]; 10 h) was 15.3%** and the “Swelling rate (ankle)” value ([3]; 24 h) was 12.5%**. For the same compound, the “Swelling rate (ankle)” value ([3]; 48 h) was 4.7%** and the “TNF-α percentage decrease %” value (TNF-α; [5]) was 98.89%.

Source: US20250129012A1, “ANTI-INFLAMMATORY AND ANALGESIC COMPOUNDS AND USE THEREOF” (JIANGSU ATOM BIOSCIENCE AND PHARMACEUTICAL CO., LTD., priority 2021, published 2025)
